Source: patent publication US6245796A, “Tricyclic pyrrole or pyrazole derivative” (priority 1997, dated 2001)
pKi: −log10 of the molar value. Structures can show the parent of a compound that is named as a salt. Where two headings read alike, the source gives them in different places.

How the values were obtained:
[1] = molecular target: 5-HT2A receptor (Homo sapiens, UniProt P28223); test: biochemical; assay type: binding
Method: (§1) The 5-HT2C and 5-HT2A receptors: Carried out by [^3 H] 5-HT binding assay in accordance with the method of A. Pazos et al., Eur. J. Pharmacol., 106, 539-546 (1985) or S. Havlik and S. J. Peroutka, Brain Res., 584, 191-196 (1992).
(§2) Using the above method, a drug concentration which inhibits 50% of receptor binding of ligand (IC50 value) was calculated, and a Ki value which represents affinity for the receptor was obtained by the following formula.
(§3) ([L]: ligand concentration, [Kd]: dissociation constant)

[2] = molecular target: 5-HT2C receptor; test: [3H] 5-HT binding assay, 5-HT2C receptor; details: Ki=IC50/(1+[L]/[Kd]), read-out: Binding test Ki, 5-HT2C receptor
Method: as §1, §2, §3

Sequence of 5-HT2A receptor (P28223 whole entry): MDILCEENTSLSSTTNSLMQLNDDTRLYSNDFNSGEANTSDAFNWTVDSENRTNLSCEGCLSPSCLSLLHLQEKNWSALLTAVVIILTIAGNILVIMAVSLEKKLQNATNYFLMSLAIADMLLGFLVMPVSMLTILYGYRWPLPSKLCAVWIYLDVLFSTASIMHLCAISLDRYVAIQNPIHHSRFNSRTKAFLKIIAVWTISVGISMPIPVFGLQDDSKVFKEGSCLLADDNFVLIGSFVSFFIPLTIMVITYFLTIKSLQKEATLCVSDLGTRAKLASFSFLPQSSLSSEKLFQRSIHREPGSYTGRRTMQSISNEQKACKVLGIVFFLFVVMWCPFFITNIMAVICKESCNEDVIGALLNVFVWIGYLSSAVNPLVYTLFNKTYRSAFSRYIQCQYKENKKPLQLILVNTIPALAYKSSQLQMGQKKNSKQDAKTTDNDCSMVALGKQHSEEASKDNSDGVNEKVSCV

Compound | pKi [1] | pKi [2] | pKi ([1]; [3H] 5-HT binding, Ki=IC50/(1+[L]/[Kd]), read-out: Binding test Ki, 5-HT2A receptor)
NCCn1ncc2ccc3sc(Br)cc3c21 [Example 20, 2-(7-Bromo-1H-thieno[2,3-g]indazol-1-yl)ethylamine hydrochloride] | 7.74 | 9.10 | 
COc1nn(C[C@H](C)N)c2c1ccc1occc12 [Example 37, (S)-2-(3-Methoxy-1H-furo[2,3-g]indazol-1-yl)-1-methylethylamine fumarate] |  | 9.30 | 8.06
CCc1nn(CCN)c2c1ccc1occc12 [Example 55, 2-(3-Ethyl-1H-furo[2,3-g]indazol-1-yl)ethylamine dihydrochloride] | 7.30 | 8.39 | 
